{
  "source": "patent US20250296953A1",
  "about": "“3,4-THIAZOLO-STEROIDS AND METHODS OF MAKING AND USING THE SAME” (Arkansas State University - Jonesboro, priority 2018, published 2025)",
  "key": {"[1]": {"tested_on": "60 different human tumor cell lines", "assay": "NCI Development Therapeutics Program 60 cell line screen, one dose", "assay_type": "cell-based"}, "SK-MEL-25": {"tested_on": "SK-MEL-25", "assay": "Melanoma cytotoxicity assay (resazurin)", "assay_type": "cell-based", "conditions": "SK-MEL-25 melanoma cells, 24 hours with compound, resazurin; concentration not given", "method_in_brief": "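Viability read by resazurin fluorescence (ex 544, em 590 nm) after 6 h, following 24 h compound exposure of cells plated 24 h earlier (~4000/well). Triplicate means, minus medium blank, divided by DMSO control; IC50 derived from sigmoidal dose-response curves.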"}, "HCT-15 (Colon Cancer)": {"tested_on": "HCT-15 (Colon Cancer)", "assay": "NCI 60 one dose screen", "assay_type": "cell-based, human"}, "RPMI-8226": {"tested_on": "RPMI-8226", "assay": "NCI 60 five dose screen"}, "SR": {"tested_on": "SR", "assay": "NCI 60 five dose screen"}, "[2]": {"conditions": "RPMI-8226 (Leukemia), five dose"}},
  "data": [
    {"substance": "(1S,2R,13R,14S,18S)-7-(2,4-dimethylanilino)-2,18-dimethyl-6-thia-8-azapentacyclo[11.7.0.02,10.05,9.014,18]icosa-5(9),7,10-trien-17-one [IIa.14]", "values": [
      {"measurement": "Growth Percent", "setting": "[1]; Breast Cancer, BT-549", "value": 2.85, "unit": "%"},
      {"measurement": "Growth Percent", "setting": "[1]; Breast Cancer, HS 578T", "value": 45.27, "unit": "%"},
      {"measurement": "Growth Percent", "setting": "[1]; Breast Cancer, MCF7", "value": 18.18, "unit": "%"},
      {"measurement": "Growth Percent", "setting": "[1]; Breast Cancer, MDA-MB-231/ATCC", "value": 26.55, "unit": "%"},
      {"measurement": "Growth Percent", "setting": "[1]; Breast Cancer, MDA-MB-468", "value": 16.97, "unit": "%"},
      {"measurement": "Growth Percent", "setting": "[1]; Breast Cancer, T-47D", "value": 41.81, "unit": "%"},
      {"measurement": "Growth Percent", "setting": "[1]; CNS Cancer, SF-268", "value": 46.93, "unit": "%"},
      {"measurement": "Growth Percent", "setting": "[1]; CNS Cancer, SNB-19", "value": 44.03, "unit": "%"},
      {"measurement": "Growth Percent", "setting": "[1]; CNS Cancer, SNB-75", "value": 35.14, "unit": "%"},
      {"measurement": "Growth Percent", "setting": "[1]; CNS Cancer, U251", "value": 18.36, "unit": "%"},
      {"measurement": "Growth Percent", "setting": "[1]; Colon Cancer, COLO 205", "value": 62.35, "unit": "%"},
      {"measurement": "Growth Percent", "setting": "[1]; Colon Cancer, HCC-2998", "value": 84.48, "unit": "%"},
      {"measurement": "Growth Percent", "setting": "[1]; Colon Cancer, HCT-116", "value": "−27.32", "unit": "%"},
      {"measurement": "Growth Percent", "setting": "[1]; Colon Cancer, HT29", "value": 3.81, "unit": "%"},
      {"measurement": "Growth Percent", "setting": "[1]; Colon Cancer, KM12", "value": 44.55, "unit": "%"},
      {"measurement": "Growth Percent", "setting": "[1]; Colon Cancer, SW-620", "value": 4.35, "unit": "%"},
      {"measurement": "Growth Percent", "setting": "[1]; Leukemia, CCRF-CEM", "value": 7.99, "unit": "%"},
      {"measurement": "Growth Percent", "setting": "[1]; Leukemia, HL-60(TB)", "value": 9.29, "unit": "%"},
      {"measurement": "Growth Percent", "setting": "[1]; Leukemia, K-562", "value": 5.33, "unit": "%"},
      {"measurement": "Growth Percent", "setting": "[1]; Leukemia, MOLT-4", "value": "−0.31", "unit": "%"},
      {"measurement": "Growth Percent", "setting": "[1]; Leukemia, RPMI-8226", "value": "−3.52", "unit": "%"},
      {"measurement": "Growth Percent", "setting": "[1]; Leukemia, SR", "value": "−0.63", "unit": "%"},
      {"measurement": "Growth Percent", "setting": "[1]; Melanoma, LOX IMVI", "value": "−16.56", "unit": "%"},
      {"measurement": "Growth Percent", "setting": "[1]; Melanoma, M14", "value": 37.85, "unit": "%"},
      {"measurement": "Growth Percent", "setting": "[1]; Melanoma, MALME-3M", "value": 27.34, "unit": "%"},
      {"measurement": "Growth Percent", "setting": "[1]; Melanoma, MDA-MB-435", "value": 16.89, "unit": "%"},
      {"measurement": "Growth Percent", "setting": "[1]; Melanoma, SK-MEL-2", "value": 72.63, "unit": "%"},
      {"measurement": "Growth Percent", "setting": "[1]; Melanoma, SK-MEL-5", "value": 51.38, "unit": "%"},
      {"measurement": "Growth Percent", "setting": "[1]; Melanoma, SK-MEL-28", "value": 50.77, "unit": "%"},
      {"measurement": "Growth Percent", "setting": "[1]; Melanoma, UACC-62", "value": 39.03, "unit": "%"},
      {"measurement": "Growth Percent", "setting": "[1]; Melanoma, UACC-257", "value": 65.55, "unit": "%"},
      {"measurement": "Growth Percent", "setting": "[1]; Non-small Cell Lung Cancer, A549/ATCC", "value": 61.13, "unit": "%"},
      {"measurement": "Growth Percent", "setting": "[1]; Non-small Cell Lung Cancer, EKVX", "value": 51.95, "unit": "%"},
      {"measurement": "Growth Percent", "setting": "[1]; Non-small Cell Lung Cancer, HOP-62", "value": 45.74, "unit": "%"},
      {"measurement": "Growth Percent", "setting": "[1]; Non-small Cell Lung Cancer, HOP-92", "value": 65.93, "unit": "%"},
      {"measurement": "Growth Percent", "setting": "[1]; Non-small Cell Lung Cancer, NCI-H23", "value": 54.16, "unit": "%"},
      {"measurement": "Growth Percent", "setting": "[1]; Non-small Cell Lung Cancer, NCI-H226", "value": 72.85, "unit": "%"},
      {"measurement": "Growth Percent", "setting": "[1]; Non-small Cell Lung Cancer, NCI-H322M", "value": 79.50, "unit": "%"},
      {"measurement": "Growth Percent", "setting": "[1]; Non-small Cell Lung Cancer, NCI-H460", "value": 45.78, "unit": "%"},
      {"measurement": "Growth Percent", "setting": "[1]; Ovarian Cancer, IGROV1", "value": 17.68, "unit": "%"},
      {"measurement": "Growth Percent", "setting": "[1]; Ovarian Cancer, NCI/ADR-RES", "value": 53.35, "unit": "%"},
      {"measurement": "Growth Percent", "setting": "[1]; Ovarian Cancer, OVCAR-3", "value": "−6.33", "unit": "%"},
      {"measurement": "Growth Percent", "setting": "[1]; Ovarian Cancer, OVCAR-4", "value": 59.62, "unit": "%"},
      {"measurement": "Growth Percent", "setting": "[1]; Ovarian Cancer, OVCAR-5", "value": 59.08, "unit": "%"},
      {"measurement": "Growth Percent", "setting": "[1]; Ovarian Cancer, OVCAR-8", "value": 31.69, "unit": "%"},
      {"measurement": "Growth Percent", "setting": "[1]; Ovarian Cancer, SK-OV-3", "value": 78.49, "unit": "%"},
      {"measurement": "Growth Percent", "setting": "[1]; Prostate Cancer, DU-145", "value": 25.93, "unit": "%"},
      {"measurement": "Growth Percent", "setting": "[1]; Prostate Cancer, PC-3", "value": 15.83, "unit": "%"},
      {"measurement": "Growth Percent", "setting": "[1]; Renal Cancer, 786-0", "value": 5.54, "unit": "%"},
      {"measurement": "Growth Percent", "setting": "[1]; Renal Cancer, A498", "value": 66.68, "unit": "%"},
      {"measurement": "Growth Percent", "setting": "[1]; Renal Cancer, ACHN", "value": 32.28, "unit": "%"},
      {"measurement": "Growth Percent", "setting": "[1]; Renal Cancer, CAKI-1", "value": 49.83, "unit": "%"},
      {"measurement": "Growth Percent", "setting": "[1]; Renal Cancer, RXF 393", "value": 28.78, "unit": "%"},
      {"measurement": "Growth Percent", "setting": "[1]; Renal Cancer, SN12C", "value": 26.21, "unit": "%"},
      {"measurement": "Growth Percent", "setting": "[1]; Renal Cancer, TK-10", "value": 63.32, "unit": "%"},
      {"measurement": "Growth Percent", "setting": "[1]; Renal Cancer, UO-31", "value": 34.25, "unit": "%"},
      {"measurement": "SK-MEL-25 (% inhibition)", "setting": "SK-MEL-25", "value": 15, "unit": "%"},
      {"measurement": "Growth Percent", "setting": "HCT-15 (Colon Cancer)", "value": 0.81, "unit": "%"},
      {"measurement": "GI50", "setting": "RPMI-8226; [2]", "value": 2.43, "unit": "µM"},
      {"measurement": "TGI", "setting": "RPMI-8226; [2]", "value": "6.25E−6"},
      {"measurement": "50% growth inhibition (GI50)", "setting": "RPMI-8226; leukemia cell line RPMI-8226", "value": "submicromolar"},
      {"measurement": "CC50", "setting": "RPMI-8226; read-out: LC50, RPMI-8226 (Leukemia), five dose", "value": "> 100", "unit": "µM"},
      {"measurement": "GI50", "setting": "SR; SR (Leukemia), five dose", "value": 2.32, "unit": "µM"},
      {"measurement": "TGI", "setting": "SR; SR (Leukemia), five dose", "value": ">1.00E−4"},
      {"measurement": "50% growth inhibition (GI50)", "setting": "SR; leukemia cell line SR", "value": "submicromolar"},
      {"measurement": "CC50", "setting": "SR; read-out: LC50, SR (Leukemia), five dose", "value": "> 100", "unit": "µM"}
    ]}
  ]
}
